Measurements taken from ChEMBL document CHEMBL1201862, “PubChem BioAssay data set” (2004).
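Step 1: Grow cells in 96-well plates. Step 2: Expose to compound for 48 hours at 5 concentrations. Step 3: Interpolate endpoints linearly; if unreached, use highest concentration. The concentration for 50% growth inhibition is given as GI50.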 Activity calls are given as the source filed them. No stated cut-off is given here; in the data, active = GI50 up to about 1.1 µM and inactive = higher.

Legend:
Assay in all cases: NCI anticancer screen, dose series, 48 h
[1] = system: SNB-19
[2] = system: CAKI-1
[3] = system: SNB-78
[4] = system: RXF 393
[5] = system: HOP-92
[6] = system: LOX IMVI
[7] = system: SK-MEL-2
[8] = system: MCF7
[9] = system: SF-539
[10] = system: HCT-15
[11] = system: SR
[12] = system: MDA-N
[13] = system: OVCAR-3
[14] = system: Malme-3M
[15] = system: UO-31
[16] = system: T47D
[17] = system: K562
[18] = system: EKVX
[19] = system: HT-29
[20] = system: BT-549

Row | Structure (SMILES) | GI50 [1] | GI50 [2] | GI50 [3] | GI50 [4] | GI50 [5] | GI50 [6] | GI50 [7] | GI50 [8] | GI50 [9] | GI50 [10] [µM] | GI50 [11] | GI50 [12] | GI50 [13] | GI50 [14] | GI50 [15] | GI50 [16] | GI50 [17] | GI50 [18] | GI50 [19] | GI50 [20]
1 | CCCC/C=C1/CCC(CN(C)C)C1=O (centres undefined) | 5.97 µM (inactive) | 0.745 µM (active) | 2.3 µM (inactive) | 1.77 µM (inactive) | 2.07 µM (inactive) | 1.39 µM (inactive) | 4.49 µM (inactive) | 0.525 µM (active) | 2.48 µM (inactive) | 0.401 | 0.456 µM (active) | 2.42 µM (inactive) | 1.94 µM (inactive) | 1.98 µM (inactive) | 2.3 µM (inactive) | 1.31 µM (inactive) | 0.701 µM (active) | – | – | –
2 | O=S1(=O)CCC2=CC(C(F)(F)F)=CC(C(F)(F)F)=CN21 | 2.47 µM (inactive) | 0.56 µM (active) | 1.85 µM (inactive) | 1.47 µM (inactive) | 1.15 µM (inactive) | 0.348 µM (active) | 1.82 µM (inactive) | 0.386 µM (active) | 1.42 µM (inactive) | 0.485 | 0.216 µM (active) | 0.792 µM (active) | 1.12 µM (active) | 0.733 µM (active) | 0.805 µM (active) | 0.167 µM (active) | 0.39 µM (active) | 2.93 µM (inactive) | 1.53 µM (inactive) | 2.43 µM (inactive)
3 | COc1ccccc1NC(=O)CC(=O)N1N=C(c2ccccc2)C(/N=N/c2ccc(Cl)cc2)C1=O (centres undefined) | 36 µM (inactive) | 19.5 µM (inactive) | > 100 µM (inactive) | – | – | 22.9 µM (inactive) | 69.7 µM (inactive) | – | 36.8 µM (inactive) | 58.6 | 55.1 µM (inactive) | – | 28.4 µM (inactive) | – | 18.2 µM (inactive) | – | 29 µM (inactive) | 37.2 µM (inactive) | 42.7 µM (inactive) | –
4 | Cc1nc2sccn2c1C(=O)NC(=O)Nc1ccc(Cl)cc1 | 42.2 µM (inactive) | > 100 µM (inactive) | 42.9 µM (inactive) | 37.8 µM (inactive) | 31.2 µM (inactive) | > 100 µM (inactive) | > 100 µM (inactive) | – | 41.2 µM (inactive) | > 100 | – | – | 60.3 µM (inactive) | > 100 µM (inactive) | 59.2 µM (inactive) | – | > 100 µM (inactive) | > 100 µM (inactive) | > 100 µM (inactive) | –
5 | CC[C@@]1(O)C(=O)OCc2c1cc1n(c2=O)Cc2cc3cc(O)ccc3nc2-1 [HYDROXYCAMPTOTHECIN] | – | 0.00971 µM (active) | 0.248 µM (active) | 0.0236 µM (active) | 0.0277 µM (active) | 0.0337 µM (active) | 0.473 µM (active) | < 0.0075 µM (active) | 0.00826 µM (active) | 0.295 | 0.01 µM (active) | – | – | 0.0498 µM (active) | – | 0.01 µM (active) | – | – | – | 0.0543 µM (active)
6 | CCOC(=N)CC(=O)Nc1cccc(Cl)c1 | > 100 µM (inactive) | > 100 µM (inactive) | 5.65 µM (inactive) | > 100 µM (inactive) | – | > 100 µM (inactive) | > 100 µM (inactive) | – | > 100 µM (inactive) | – | > 100 µM (inactive) | – | > 100 µM (inactive) | 31.7 µM (inactive) | > 100 µM (inactive) | – | > 100 µM (inactive) | > 100 µM (inactive) | > 100 µM (inactive) | –
7 | COc1ccc(/C=C(/C(=O)O)c2cc(OC)c(OC)c(OC)c2)cc1 | 59.4 µM (inactive) | 44.9 µM (inactive) | 35.8 µM (inactive) | – | > 100 µM (inactive) | – | 47.5 µM (inactive) | – | 19.3 µM (inactive) | – | 43.3 µM (inactive) | – | 23.7 µM (inactive) | 30.1 µM (inactive) | 39.5 µM (inactive) | – | 38.5 µM (inactive) | > 100 µM (inactive) | 42.1 µM (inactive) | –
8 | NC(=O)C(c1ccccc1)N1CCOCC1 (centres undefined) | – | > 100 µM (inactive) | > 100 µM (inactive) | > 100 µM (inactive) | > 100 µM (inactive) | > 100 µM (inactive) | > 100 µM (inactive) | – | > 100 µM (inactive) | > 100 | > 100 µM (inactive) | – | > 100 µM (inactive) | > 100 µM (inactive) | > 100 µM (inactive) | – | > 100 µM (inactive) | – | > 100 µM (inactive) | –
9 | N=C(c1ccccc1)N(c1ccccc1)c1ccccc1 | > 100 µM (inactive) | > 100 µM (inactive) | 55 µM (inactive) | 30.5 µM (inactive) | < 0.01 µM (active) | 18.2 µM (inactive) | > 100 µM (inactive) | – | 74.1 µM (inactive) | – | 30.7 µM (inactive) | – | – | 23.4 µM (inactive) | 68.5 µM (inactive) | – | – | 93.3 µM (inactive) | 42.5 µM (inactive) | –
10 | COc1cc2c(cn1)[nH]c1ccccc12 | > 100 µM (inactive) | 94.2 µM (inactive) | 59.3 µM (inactive) | – | > 100 µM (inactive) | > 100 µM (inactive) | > 100 µM (inactive) | – | > 100 µM (inactive) | > 100 | > 100 µM (inactive) | – | > 100 µM (inactive) | > 100 µM (inactive) | > 100 µM (inactive) | – | > 100 µM (inactive) | > 100 µM (inactive) | > 100 µM (inactive) | –
11 | CC1=CC2CC(C)=C(CC[C@]3(C)CC[C@H]([C@@H](C)C(=O)O)OO3)C(C)(C)C2CC1 (some centres undefined) | 1.67 µM (inactive) | 1.17 µM (inactive) | 1.51 µM (inactive) | 0.372 µM (active) | 0.136 µM (active) | 0.0792 µM (active) | 1.6 µM (inactive) | – | 1.26 µM (inactive) | 0.675 | 0.195 µM (active) | – | 1.63 µM (inactive) | 0.771 µM (active) | 0.984 µM (active) | – | 0.208 µM (active) | 1.91 µM (inactive) | 0.182 µM (active) | –
12 | CC1=C(C(=O)Nc2ccccc2C)C(c2ccccc2)C(C(=O)Nc2ccccc2C)=C(C)N1 | 45.8 µM (inactive) | 24.9 µM (inactive) | 32.9 µM (inactive) | 23.9 µM (inactive) | 6.61 µM (inactive) | 16 µM (inactive) | 26.6 µM (inactive) | – | 60.4 µM (inactive) | 40.6 | 11.7 µM (inactive) | – | 31.8 µM (inactive) | 35.1 µM (inactive) | 35.2 µM (inactive) | – | 22.6 µM (inactive) | 27.7 µM (inactive) | 34.7 µM (inactive) | –
13 | Nc1ccc2ncc(NCc3ccc(F)cc3)nc2c1 | > 100 µM (inactive) | 71.9 µM (inactive) | > 100 µM (inactive) | 34.4 µM (inactive) | 53.1 µM (inactive) | 75 µM (inactive) | > 100 µM (inactive) | – | 39.6 µM (inactive) | > 100 | 70 µM (inactive) | – | 38.9 µM (inactive) | > 100 µM (inactive) | 16.4 µM (inactive) | – | 87.9 µM (inactive) | 62.7 µM (inactive) | > 100 µM (inactive) | –
14 | O=C(Cc1nc2ccccc2s1)C(=O)Nc1cccc(Cl)c1 | > 100 µM (inactive) | > 100 µM (inactive) | > 100 µM (inactive) | > 100 µM (inactive) | > 100 µM (inactive) | > 100 µM (inactive) | > 100 µM (inactive) | – | > 100 µM (inactive) | > 100 | – | – | > 100 µM (inactive) | > 100 µM (inactive) | > 100 µM (inactive) | – | > 100 µM (inactive) | > 100 µM (inactive) | > 100 µM (inactive) | –
15 | Nc1nc(-c2ccccc2)cc(-c2ccccc2O)n1 | 68.9 µM (inactive) | 34.1 µM (inactive) | 76.9 µM (inactive) | 27.3 µM (inactive) | > 100 µM (inactive) | 31.8 µM (inactive) | – | – | 37.4 µM (inactive) | – | 30.3 µM (inactive) | – | 33.5 µM (inactive) | > 100 µM (inactive) | 8.15 µM (inactive) | – | 39.1 µM (inactive) | 23.7 µM (inactive) | 33.4 µM (inactive) | –
16 | O=CC1=CCCC2(C1)OCCO2 | > 100 µM (inactive) | > 100 µM (inactive) | > 100 µM (inactive) | > 100 µM (inactive) | > 100 µM (inactive) | > 100 µM (inactive) | > 100 µM (inactive) | – | > 100 µM (inactive) | > 100 | – | – | > 100 µM (inactive) | > 100 µM (inactive) | > 100 µM (inactive) | – | > 100 µM (inactive) | > 100 µM (inactive) | > 100 µM (inactive) | –
17 | CC1(C)N=C(c2ccccn2)C(c2ccccn2)=NC1(C)C | > 100 µM (inactive) | > 100 µM (inactive) | > 100 µM (inactive) | > 100 µM (inactive) | > 100 µM (inactive) | > 100 µM (inactive) | > 100 µM (inactive) | – | > 100 µM (inactive) | > 100 | > 100 µM (inactive) | – | > 100 µM (inactive) | > 100 µM (inactive) | > 100 µM (inactive) | – | > 100 µM (inactive) | > 100 µM (inactive) | > 100 µM (inactive) | –
18 | COc1cccc(NC(=O)CC(=O)N2NC(C)C(/N=N/c3cccc(C(=O)O)c3)C2=O)c1 (centres undefined) | > 100 µM (inactive) | > 100 µM (inactive) | > 100 µM (inactive) | – | > 100 µM (inactive) | > 100 µM (inactive) | > 100 µM (inactive) | – | > 100 µM (inactive) | – | > 100 µM (inactive) | – | > 100 µM (inactive) | > 100 µM (inactive) | > 100 µM (inactive) | – | > 100 µM (inactive) | > 100 µM (inactive) | > 100 µM (inactive) | –
